Assay results as given in patent US10435369B2, “Tricyclic sulfones as ROR gamma modulators” (BRISTOL-MYERS SQUIBB COMPANY, priority 2016, dated 2019).

Biological target: RORγ receptor (Homo sapiens, UniProt P51449)
Assay: RORγ Gal4 reporter assay (Gal4-luciferase, inverse agonist activity)
Type: cell-based
Details: Jurkat cells stably over-expressing hRORγ; Gal4-luciferase reporter; overnight incubation; read-out: RORγ Gal4, IC50
Description: General RORγ Gal4 Reporter Assay
IC50 values were determined.

RORγ receptor, sequence (P51449 269-508): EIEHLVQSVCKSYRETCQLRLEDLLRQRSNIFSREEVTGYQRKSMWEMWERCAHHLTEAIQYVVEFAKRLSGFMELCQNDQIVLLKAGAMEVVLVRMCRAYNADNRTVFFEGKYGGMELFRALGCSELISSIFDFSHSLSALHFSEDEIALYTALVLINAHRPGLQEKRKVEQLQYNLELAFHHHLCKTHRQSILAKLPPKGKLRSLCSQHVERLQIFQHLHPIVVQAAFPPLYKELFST

In order of falling IC50:
1. O=C(O)C12C3C4C1C1C2C3C41C(=O)N[C@@H]1CC[C@@]2(S(=O)(=O)c3ccc(F)cc3)c3ccc(C(F)(C(F)(F)F)C(F)(F)F)cc3CC[C@@H]12 (some centres unmarked) [Example 193]  97 nM
2. CC(C)(C(=O)N[C@@H]1CC[C@@]2(S(=O)(=O)c3ccc(F)cc3)c3ccc(C(F)(C(F)(F)F)C(F)(F)F)cc3CC[C@@H]12)N1CCNCC1 [Example 200]  63 nM
3. O=C(O)[C@H]1CC[C@](O)(C(=O)N[C@@H]2CC[C@@]3(S(=O)(=O)c4ccc(F)cc4)c4ccc(C(F)(C(F)(F)F)C(F)(F)F)cc4CC[C@@H]23)CC1 [Example 191, (1s,4s)-4-(((3R,3aS,9bS)-9b-((4-fluorophenyl)sulfonyl)-7-(perfluoropropan-2-yl)-2,3,3a,4,5,9b-hexahydro-1H-cyclopenta[a]naphthalen-3-yl)carbamoyl)-4-hydroxycyclohexane-1-carboxylic acid]  54 nM
4. O=C(O)C1CCCC(NC(=O)[C@@H]2CC[C@@]3(S(=O)(=O)c4ccc(F)cc4)c4ccc(C(F)(C(F)(F)F)C(F)(F)F)cc4CC[C@@H]23)C1 (some centres unmarked) [Example 100]  53 nM
5. O=C(Nc1ccnc2[nH]ncc12)[C@@H]1CC[C@@]2(S(=O)(=O)c3ccc(F)cc3)c3ccc(C(F)(C(F)(F)F)C(F)(F)F)cc3CC[C@@H]12 [Example 27]  48 nM
6. C[C@H]1CN(C(=O)[C@@H]2CC[C@@]3(S(=O)(=O)c4ccc(F)cc4)c4ccc(C(F)(C(F)(F)F)C(F)(F)F)cc4CC[C@@H]23)CC[C@@H]1C(=O)O [Example 105]  42 nM
7. O=C(O)C1CCN(C(=O)[C@@H]2CC[C@@]3(S(=O)(=O)c4ccc(F)cc4)c4ccc(C(F)(C(F)(F)F)C(F)(F)F)cc4CC[C@@H]23)C1 (some centres unmarked) [Example 92]  41 nM
8. O=C(O)C1CCN(C(=O)[C@@H]2CC[C@@]3(S(=O)(=O)c4ccc(F)cc4)c4ccc(C(F)(C(F)(F)F)C(F)(F)F)cc4CC[C@@H]23)C1 (some centres unmarked) [Example 91]  40 nM
9. O=C(N[C@@H]1CC[C@@]2(S(=O)(=O)c3ccc(F)cc3)c3ccc(C(F)(C(F)(F)F)C(F)(F)F)cc3CC[C@@H]12)C1(O)CCS(=O)(=O)CC1 [Example 144]  40 nM
10. O=C([C@@H]1CC[C@@]2(S(=O)(=O)c3ccc(F)cc3)c3ccc(C(F)(C(F)(F)F)C(F)(F)F)cc3CC[C@@H]12)N1CC(F)(F)C[C@@H]1CO [Example 64]  37 nM
11. O=C(N[C@H]1CC[C@H](C(=O)O)CC1)[C@@H]1CC[C@@]2(S(=O)(=O)c3ccc(F)cc3)c3ccc(C(F)(C(F)(F)F)C(F)(F)F)cc3CC[C@@H]12 [Example 102]  33 nM
12. C[C@H]1C[C@H](C(=O)O)CC[C@H]1C(=O)N[C@@H]1CC[C@@]2(S(=O)(=O)c3ccc(F)cc3)c3ccc(C(F)(C(F)(F)F)C(F)(F)F)cc3CC[C@@H]12 [Example 194]  32 nM
13. O=C(NC12CCC(C(=O)O)(CC1)CC2)[C@@H]1CC[C@@]2(S(=O)(=O)c3ccc(F)cc3)c3ccc(C(F)(C(F)(F)F)C(F)(F)F)cc3CC[C@@H]12 [Example 103]  31 nM
14. CC(C)(N)C(=O)N[C@@H]1CC[C@@]2(S(=O)(=O)c3ccc(F)cc3)c3ccc(C(F)(C(F)(F)F)C(F)(F)F)cc3CC[C@@H]12 [Example 197]  30 nM
15. CS(=O)(=O)N1CC(O)(C(=O)N[C@@H]2CC[C@@]3(S(=O)(=O)c4ccc(F)cc4)c4ccc(C(F)(C(F)(F)F)C(F)(F)F)cc4CC[C@@H]23)C1 [Example 168]  28 nM
16. O=C(O)[C@H]1CC[C@H](C(=O)N[C@@H]2CC[C@@]3(S(=O)(=O)c4ccc(F)cc4)c4ccc(C(F)(C(F)(F)F)C(F)(F)F)cc4CC[C@@H]23)CC1 [Example 139]  24 nM
17. O=C(O)[C@H]1CC[C@](F)(C(=O)N[C@@H]2CC[C@@]3(S(=O)(=O)c4ccc(F)cc4)c4ccc(C(F)(C(F)(F)F)C(F)(F)F)cc4CC[C@@H]23)CC1 [Example 192]  24 nM
18. O=C(O)C1CCCC(NC(=O)[C@@H]2CC[C@@]3(S(=O)(=O)c4ccc(F)cc4)c4ccc(C(F)(C(F)(F)F)C(F)(F)F)cc4CC[C@@H]23)C1 (some centres unmarked) [Example 98]  22 nM
19. O=C(O)c1ccc(C(=O)N[C@@H]2CC[C@@]3(S(=O)(=O)c4ccc(F)cc4)c4ccc(C(F)(C(F)(F)F)C(F)(F)F)cc4CC[C@@H]23)cc1 [Example 162]  22 nM
20. O=C([C@@H]1CC[C@@]2(S(=O)(=O)c3ccc(F)cc3)c3ccc(C(F)(C(F)(F)F)C(F)(F)F)cc3CC[C@@H]12)N1CC(F)(F)C(F)(F)C1 [Example 63]  21 nM
21. O=C([C@@H]1CC[C@@]2(S(=O)(=O)c3ccc(F)cc3)c3ccc(C(F)(C(F)(F)F)C(F)(F)F)cc3CC[C@@H]12)N1CCC2(CCNC2=O)CC1 [Example 82]  18 nM
22. CC(C)(N)[C@H](N)C(=O)N[C@@H]1CC[C@@]2(S(=O)(=O)c3ccc(F)cc3)c3ccc(C(F)(C(F)(F)F)C(F)(F)F)cc3CC[C@@H]12 [Example 198]  17 nM
23. O=C(N[C@@H]1CC[C@@]2(S(=O)(=O)c3ccc(F)cc3)c3ccc(C(F)(C(F)(F)F)C(F)(F)F)cc3CC[C@@H]12)c1cccnc1O [Example 161]  16 nM
24. NC(=O)[C@H]1CC(F)(F)CN1C(=O)[C@@H]1CC[C@@]2(S(=O)(=O)c3ccc(F)cc3)c3ccc(C(F)(C(F)(F)F)C(F)(F)F)cc3CC[C@@H]12 [Example 66]  15 nM
25. O=C([C@@H]1CC[C@@]2(S(=O)(=O)c3ccc(F)cc3)c3ccc(C(F)(C(F)(F)F)C(F)(F)F)cc3CC[C@@H]12)N1CCS(=O)(=O)CC1 [Example 40]  14 nM
26. O=C([C@@H]1CC[C@@]2(S(=O)(=O)c3ccc(F)cc3)c3ccc(C(F)(C(F)(F)F)C(F)(F)F)cc3CC[C@@H]12)N1CCC2(CC1)CNC2=O [Example 85]  14 nM
27. O=C(O)C1CCCC(NC(=O)[C@@H]2CC[C@@]3(S(=O)(=O)c4ccc(F)cc4)c4ccc(C(F)(C(F)(F)F)C(F)(F)F)cc4CC[C@@H]23)C1 (some centres unmarked) [Example 99]  14 nM
28. O=C(N[C@@H]1CC[C@@]2(S(=O)(=O)c3ccc(F)cc3)c3ccc(C(F)(C(F)(F)F)C(F)(F)F)cc3CC[C@@H]12)[C@@H](O)Cc1c[nH]cn1 [Example 158]  14 nM
29. O=C([C@@H]1CC[C@@]2(S(=O)(=O)c3ccc(F)cc3)c3ccc(C(F)(C(F)(F)F)C(F)(F)F)cc3CC[C@@H]12)N1CCC(F)(F)C1 [Example 65]  13 nM
30. Cc1ncn(C)c1C(=O)N[C@@H]1CC[C@@]2(S(=O)(=O)c3ccc(F)cc3)c3ccc(C(F)(C(F)(F)F)C(F)(F)F)cc3CC[C@@H]12 [Example 146]  13 nM
31. O=C(N[C@@H]1CC[C@@]2(S(=O)(=O)c3ccc(F)cc3)c3ccc(C(F)(C(F)(F)F)C(F)(F)F)cc3CC[C@@H]12)[C@H](O)C(F)(F)F [Example 157]  13 nM
32. O=C1CC2(CCN(C(=O)[C@@H]3CC[C@@]4(S(=O)(=O)c5ccc(F)cc5)c5ccc(C(F)(C(F)(F)F)C(F)(F)F)cc5CC[C@@H]34)CC2)CN1 [Example 83]  9 nM
33. Cc1nnsc1C(=O)N[C@@H]1CC[C@@]2(S(=O)(=O)c3ccc(F)cc3)c3ccc(C(F)(C(F)(F)F)C(F)(F)F)cc3CC[C@@H]12 [Example 147]  9 nM
34. O=C(N[C@@H]1CC[C@@]2(S(=O)(=O)c3ccc(F)cc3)c3ccc(C(F)(C(F)(F)F)C(F)(F)F)cc3CC[C@@H]12)C1CCS(=O)(=O)CC1 [Example 149, N-((3R,3aS,9bS)-9b-((4-fluorophenyl)sulfonyl)-7-(perfluoropropan-2-yl)-2,3,3a,4,5,9b-hexahydro-1H-cyclopenta[a]naphthalen-3-yl)tetrahydro-2H-thiopyran-4-carboxamide 1,1-dioxide]  9 nM
35. O=C(N[C@@H]1CC[C@@]2(S(=O)(=O)c3ccc(F)cc3)c3ccc(C(F)(C(F)(F)F)C(F)(F)F)cc3CC[C@@H]12)c1ccc(=O)[nH]c1 [Example 188]  9 nM
36. Cn1cc(C(=O)N[C@@H]2CC[C@@]3(S(=O)(=O)c4ccc(F)cc4)c4ccc(C(F)(C(F)(F)F)C(F)(F)F)cc4CC[C@@H]23)ccc1=O [Example 189]  9 nM
37. CC1(O)CN(C(=O)N[C@@H]2CC[C@@]3(S(=O)(=O)c4ccc(F)cc4)c4ccc(C(F)(C(F)(F)F)C(F)(F)F)cc4CC[C@@H]23)C1 [Example 204]  9 nM
38. CS(=O)(=O)N1CCC(O)(C(=O)N[C@@H]2CC[C@@]3(S(=O)(=O)c4ccc(F)cc4)c4ccc(C(F)(C(F)(F)F)C(F)(F)F)cc4CC[C@@H]23)CC1 [Example 124]  7 nM
39. O=C(O)C1CC2(C1)CC(C(=O)N[C@@H]1CC[C@@]3(S(=O)(=O)c4ccc(F)cc4)c4ccc(C(F)(C(F)(F)F)C(F)(F)F)cc4CC[C@@H]13)C2 (some centres unmarked) [Example 141]  7 nM
40. CS(=O)(=O)N[C@@H]1CC[C@@]2(S(=O)(=O)c3ccc(F)cc3)c3ccc(C(F)(C(F)(F)F)C(F)(F)F)cc3CC[C@@H]12 [Example 201, N-((3R,3aS,9bS)-9b-((4-fluorophenyl)sulfonyl)-7-(perfluoropropan-2-yl)-2,3,3a,4,5,9b-hexahydro-1H-cyclopenta[a]naphthalen-3-yl)methanesulfonamide]  7 nM
41. O=C1CC2(CCN(C(=O)[C@@H]3CC[C@@]4(S(=O)(=O)c5ccc(F)cc5)c5ccc(C(F)(C(F)(F)F)C(F)(F)F)cc5CC[C@@H]34)CC2)N1 [Example 84]  5 nM
42. CS(=O)(=O)N1CCC(NC(=O)[C@@H]2CC[C@@]3(S(=O)(=O)c4ccc(F)cc4)c4ccc(C(F)(C(F)(F)F)C(F)(F)F)cc4CC[C@@H]23)CC1 [Example 77]  4 nM
43. NC(=O)c1c(F)cc(C(=O)N[C@@H]2CC[C@@]3(S(=O)(=O)c4ccc(F)cc4)c4ccc(C(F)(C(F)(F)F)C(F)(F)F)cc4CC[C@@H]23)cc1F [Example 159]  3 nM
44. O=C(N[C@@H]1CC[C@@]2(S(=O)(=O)c3ccc(F)cc3)c3ccc(C(F)(C(F)(F)F)C(F)(F)F)cc3CC[C@@H]12)C1(O)CCS(=O)(=O)CC1 [Example 123, N-((3R,3aS,9bS)-9b-((4-fluorophenyl)sulfonyl)-7-(perfluoropropan-2-yl)-2,3,3a,4,5,9b-hexahydro-1H-cyclopenta[a]naphthalen-3-yl)-4-hydroxytetrahydro-2H-thiopyran-4-carboxamide 1,1-dioxide]  2 nM
